Patent US9788552B2, “Use of a natural grape marc extract in order to stimulate the natural defenses of plants” (CENTRE NATIONAL DE LA RECHERCHE SCIENTIFIQUE—CNRS, priority 2010, dated 2017)

Tested on: tobacco leaf
Experiment: Tobacco leaf infiltration tests, macroscopic symptoms under white light
Type: in vivo
Conditions: 50 μl, 8 days after infiltration
Procedure: Various tobacco leaf infiltration tests were carried out with 50 μl of solution as follows: Eight days after infiltration, macroscopic symptoms were observed under white light and under UV light (wavelength=312 nm). In the figures, the numbers correspond to the spot of infiltration of the test of the same number.

## CC(N)CC(=O)O (stereo not drawn) [BABA, β-aminobutyric acid]
10 mM, white light (Test 6)
  chlorosis or necrosis at the infiltrated sites: do not induce chlorosis or necrosis

## O=C(O)c1ccccc1O [Salicylic acid, salicylic acid]
2 mM, white light (Test 7, positive control)
  necrosis in infiltrated foliar tissues: causes necrosis
